# Values quoted from earlier work, collected in publication PMC7523345 (Investigational new drugs, 2018).
# How the values were obtained:
# [1] = test system: TNBC cells with NOTCH1 re-arrangements; details: in vitro and in vivo; cited from earlier work
# [2] = test system: TNBC cells with NOTCH2 rearrangement; details: cited from earlier work
compound,measurement,setting,value
O=S1(=O)N[C@@]2(CN1CC(F)(F)F)[C@@H]1CC[C@H]2Cc2ccc(/C=C/CN3CCC(C(F)(F)F)CC3)cc2C1 [MRK-003],Sensitivity of TNBC cells with NOTCH1 re-arrangements,[1],sensitive
same,Sensitivity of TNBC cells with NOTCH2 rearrangement,[2],resistant
